Reference: PMC3705371, “Helicusin E, Isochromophilone X and Isochromophilone XI: New Chloroazaphilones Produced by the Fungus Bartalinia robillardoides Strain LF550” (Marine Drugs, 2013)
Where two headings read alike, the source gives them in different places.

Legend:
Septoria tritici = experiment: Antifungal assay, Septoria tritici (optical density); format: cell-based; details: for IC50: Zymoseptoria tritici, read-out: IC50 Septoria tritici
Experimental: Septoria tritici. The substances were dissolved in DMSO to a concentration of 10 mM and transferred into a 96-well microtiter plate. For screening purposes, the compounds were tested in a final concentration of 100 μM. The fungal strain S. tritici was cultured on MYG medium (1.0% malt extract, 0.4% yeast extract, 0.4% glucose·H2O, pH = 5.6) for four days, subsequently the culture was diluted to an optical density (600 nm) of 0.03 and added to the microtiter plate. After incubation for 48 h at 20 °C, the optical density was measured. The resulting values were compared to a positive (0.53 μM boscalid) and a negative control (no compound) on the same plate.

Bacillus subtilis = experiment: Antibacterial assay, Bacillus subtilis; format: cell-based; details: for IC50: Bacillus subtilis, antibacterial
Experimental: (§1) Bacillus subtilis, Staphylococcus lentus, Xanthomonas campestris and Candida albicans. The antimicrobial assays were performed as reported by Schulz et al..

Staphylococcus lentus = experiment: Antibacterial assay, Staphylococcus lentus; format: cell-based; details: for IC50: Mammaliicoccus lentus, antibacterial
Experimental: as §1

Acetylcholinesterase = Acetylcholinesterase (Homo sapiens, UniProt P22303); experiment: biochemical; format: biochemical; details: for IC50: enzyme assay
Chain of Acetylcholinesterase (P22303 32-614, species assumed): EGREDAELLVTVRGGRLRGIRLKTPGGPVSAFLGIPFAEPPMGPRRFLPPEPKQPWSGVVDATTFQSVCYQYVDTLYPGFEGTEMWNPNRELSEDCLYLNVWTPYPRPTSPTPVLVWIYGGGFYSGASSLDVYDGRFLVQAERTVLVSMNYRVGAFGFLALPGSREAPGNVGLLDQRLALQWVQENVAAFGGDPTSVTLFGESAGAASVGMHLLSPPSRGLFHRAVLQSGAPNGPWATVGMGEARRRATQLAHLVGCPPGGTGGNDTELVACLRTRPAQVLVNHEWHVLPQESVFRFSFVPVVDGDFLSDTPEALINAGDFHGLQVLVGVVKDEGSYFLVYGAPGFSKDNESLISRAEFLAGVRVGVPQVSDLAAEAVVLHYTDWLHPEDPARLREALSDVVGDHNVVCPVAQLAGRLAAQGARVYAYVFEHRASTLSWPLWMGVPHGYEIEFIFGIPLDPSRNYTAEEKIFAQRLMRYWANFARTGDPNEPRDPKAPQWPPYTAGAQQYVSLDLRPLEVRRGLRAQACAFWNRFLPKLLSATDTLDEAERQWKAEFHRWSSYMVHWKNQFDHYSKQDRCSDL
Experimental: (§2) Enzyme inhibition assays PDE4 and AChE assays were performed as described by Schulz et al. and Kim et al., respectively.

[1] = system: human fibroblast cell line (KIF5); experiment: Cytotoxicity assay (CellTiterBlue), KIF5; format: cell-based; details: KIF5 cells
Experimental: (§3) Cytotoxicity assays. The sensitivity of the cell lines KIF5 and HepG2 to the isolated compounds was evaluated by monitoring the metabolic activity using the CellTiterBlue Cell Viability Assay (Promega, Mannheim, Germany). The human fibroblast cell line (KIF5) was provided by the Institute for Experimental Tumor Research, Section Molecular Oncology, Kiel, Germany, and the human hepatocellular carcinoma cell line (HepG2) was obtained from the German Collection of Microorganism and Cell Cultures (DSMZ, Braunschweig, Germany). The cytotoxicity assays were performed as described by Schulz et al., apart from the cell concentration, which were 5000 KIF5 cells and 10,000 HepG2 cells per vial.

Phosphodiesterase 4 = experiment: Enzyme inhibition assay PDE4; format: biochemical; details: for IC50: enzyme assay
Experimental: as §2

Candida albicans = experiment: Antifungal assay, Candida albicans; format: cell-based; details: for IC50: antifungal
Experimental: as §1

Trichophyton rubrum = experiment: Antifungal assay, Trichophyton rubrum (optical density); format: cell-based; details: for IC50: Trichophyton rubrum, antifungal, 72 h at 28 °C
Experimental: Trichophyton rubrum. The substances were dissolved in DMSO to a concentration of 10 mM and transferred into a 96-well microtiter plate. For screening purposes, the compounds were tested in a final concentration of 100 μM. For inoculation 5 × 10^4 spores mL^−1 from the fungal strain T. rubrum diluted in Sabouraud medium (1.0% peptone, 2.0% glucose·H2O, pH = 5.6) were added to the microtiter plate. After incubation for 72 h at 28 °C the optical density was measured.

[2] = system: human hepatocellular carcinoma cell line (HepG2); experiment: Cytotoxicity assay (CellTiterBlue), HepG2; format: cell-based; details: HepG2 cells
Experimental: as §3

MRSA = details: cited from earlier work

Structure (SMILES)	IC50 (Bacillus subtilis) [µM]	IC50 (Staphylococcus lentus) [µM]	inhibition of Candida albicans (in words) (Candida albicans)	antibacterial activity against Bacillus subtilis (in words) (Bacillus subtilis)	antibacterial activity against Staphylococcus lentus (in words) (Staphylococcus lentus)	inhibition of Septoria tritici (in words) (Septoria tritici)	inhibition of Trichophyton rubrum (in words) (Trichophyton rubrum)	IC50 (Acetylcholinesterase) [µM]	IC50 (Phosphodiesterase 4) [µM]	IC50 (Candida albicans; Candida albicans) [µM]	IC50 (Septoria tritici; antifungal, 48 h at 20 °C) [µM]	IC50 (Trichophyton rubrum) [µM]	other results
O=C(Nc1ccccc1-c1ccc(Cl)cc1)c1cccnc1Cl [boscalid, reference compound]	–	–	–	–	–	–	–	–	–	–	–	–	IC50 (Septoria tritici; 48 h): 0.53 µM
O=C(N[C@H](CO)[C@H](O)c1ccc([N+](=O)[O-])cc1)C(Cl)Cl [chloram-phenicol, reference compound]	1.45	2.13	–	–	–	–	–	–	–	–	–	–	–
CC=CC(=O)OC1CC(C)OC(=O)CCC(O)CC1=O (stereo not drawn) [compound 6, bartanolide]	–	–	inactive	inactive	inactive	inactive	inactive	–	–	–	–	–	inhibition of acetylcholinesterase (in words) (Acetylcholinesterase): inactive; cytotoxic activity (in words) [1]: inactive; inhibition of phosphodiesterase 4 (in words) (Phosphodiesterase 4): inactive; cytotoxic activity (in words) [2]: inactive
CCC(C)C=C(C)C=CC1=CC2=C(Cl)C(=O)C(C)(O)C(=O)C2=CO1 (stereo not drawn) [deacetylsclerotiorin (2), 5-Chloro-3-[3,5-dimethyl-1,3-heptadien-1-yl]-7-hydroxy-7-methyl-6H-2-benzopyran-6,8(7H)-dione]	38.8	43.6	Significant inhibition	Weak	Weak	Significant inhibition	Significant inhibition	> 50	2.79	24	7.45	2.83	IC50 (Phosphodiesterase 4; listed as 2): 2.8 µM
CCC(C)/C=C(C)/C=C/C1=CC2=C(Cl)C(=O)[C@@](C)(OC(=O)/C=C(\C)CC(=O)O)C(=O)C2=CO1 (stereo partly drawn) [helicusin A (1), helicusin A]	> 100	> 100	Significant inhibition	–	–	Significant inhibition	Significant inhibition	2.1	> 10	24.4	7.6	7.23	–
CCC(C)C(O)C(C)(O)/C=C/C1=CC2=C(Cl)C(=O)[C@@](C)(OC(=O)/C=C(\C)CC(=O)O)C(=O)C2=CO1 (stereo partly drawn) [helicusin E (3), helicusin E]	> 100	> 100	–	–	–	–	–	> 50	> 10	> 200	> 100	> 100	–
CCC(C)/C=C(C)/C=C/C1=CC2=C(Cl)C(=O)C(C)(OC(C)=O)C(=O)C2=CN1CCCC(=O)O (stereo not drawn) [isochromophilone IX]	–	–	–	–	–	–	–	–	–	–	–	–	MIC (MRSA): approximately 100 μM
CCC(C)/C=C(C)/C=C/C1=CC2=C(Cl)C(=O)[C@@](C)(OC(=O)/C=C(\C)CC(=O)O)C(=O)C2=CN1CCO (stereo partly drawn) [isochromophilone X (4), isochromophilone X]	> 100	> 100	–	–	–	–	–	–	11.7	> 100	> 100	> 80	–
CCC(C)/C=C(C)/C=C/C1=CC2=C(Cl)C(=O)C(C)(OC(=O)/C=C(\C)CC(=O)O)C(=O)C2(O)CO1 (stereo not drawn) [isochromophilone XI (5), isochromophilone XI]	55.6	78.4	–	Weak	Weak	–	weak activity	> 50	8.3	> 100	> 100	41.5	–
C[C@@H]1[C@H](O)[C@@H](C)/C=C/C=C/CC/C=C/C=C/C=C/C=C/C(O[C@H]2O[C@H](C)[C@@H](O)[C@H](N)[C@@H]2O)CC2O[C@](O)(CC(O)C(O)CCC(O)CC(O)CC(O)CC(=O)O[C@H]1C)CC(O)C2C(=O)O (stereo partly drawn) [nystatin, reference compound]	–	–	–	–	–	–	–	–	–	–	–	–	IC50 (Candida albicans): 5.8 µM
